{"source": "patent US8044055B2", "about": "“2-phenyl-6-aminocarbonyl-pyrimidine derivatives and their use as P2Y12 receptor” (Actelion Pharmaceuticals Ltd., priority 2006, dated 2011)", "note": "Where a name gives a salt, the structure may show the parent alone."}
{"target": "T1, human P2Y12 receptor (Homo sapiens, UniProt Q9H244)", "T1 construct": "expressed in transfected cells; host or cells: Chinese Hamster Ovary (CHO) cells", "T1 sequence (Q9H244 whole entry)": "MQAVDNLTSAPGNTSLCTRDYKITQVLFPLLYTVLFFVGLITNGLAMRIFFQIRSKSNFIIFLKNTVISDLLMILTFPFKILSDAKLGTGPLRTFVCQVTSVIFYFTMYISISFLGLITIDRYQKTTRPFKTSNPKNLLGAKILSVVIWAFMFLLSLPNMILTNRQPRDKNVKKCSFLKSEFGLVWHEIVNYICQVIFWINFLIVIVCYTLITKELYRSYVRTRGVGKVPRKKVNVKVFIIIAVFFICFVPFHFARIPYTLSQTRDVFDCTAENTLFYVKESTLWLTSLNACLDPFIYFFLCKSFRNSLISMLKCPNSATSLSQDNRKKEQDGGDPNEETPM", "assay": "P2Y12 receptor binding assay", "settings": "CHO cells with recombinant expression of the human P2Y12 receptor; tritium-labeled 2-methyl-S-ADP; 2 hours at room temperature", "description": "Chinese Hamster Ovary (CHO) cells with recombinant expression of the human P2Y12 receptor were cultured in 24 well cell-culture plates. Cells were washed three times with binding buffer (50 mM Tris pH 7.4, 100 mM NaCl, 1 mM EDTA, 0.5% BSA). The cells were then incubated with 0.5 ml per well binding buffer containing tritium-labeled 2-methyl-thio-adenosine 5′-diphosphate (2-methyl-S-ADP) (between 100'000 and 300'000 dpm per well) and various concentrations of test compounds. After incubation at room temperature for 2 hours, cells were washed three times with binding buffer. Then, cells were solubilized by addition of 0.5 ml solubilization buffer (SDS, NaOH, EDTA). The content of each well was then transferred into beta-counter vials and 2.0 ml of Ultima Gold Scintillation liquid was added.", "units": {"IC50": "nM"}}
{"smiles": "CCOC(=O)N1CCN(C(=O)[C@H](CCC(=O)O)NC(=O)c2cc(OCCOCCOC)nc(-c3ccccc3)n2)CC1", "note": "[Example 1, 4-[(S)-4-carboxy-2-({6-[2-(2-methoxy-ethoxy)-ethoxy]-2-phenyl-pyrimidine-4-carbonyl}-amino)-butyryl]-piperazine-1-carboxylic acid ethyl ester]", "IC50": 108}
{"smiles": "CCOC(=O)N1CCN(C(=O)[C@H](CCC(=O)O)NC(=O)c2cc(OC3CCCN(C)C3)nc(-c3ccccc3)n2)CC1", "note": "(stereo partly drawn) [Example 6, 4-((S)-4-carboxy-2-{[6-(1-methyl-piperidin-3-yloxy)-2-phenyl-pyrimidine-4-carbonyl]-amino}-butyryl)-piperazine-1-carboxylic acid ethyl ester trifluoroacetate salt]", "IC50": 238}
{"smiles": "CCOC(=O)N1CCN(C(=O)[C@H](CCC(=O)O)NC(=O)c2cc(OC3CCOC3)nc(-c3ccccc3)n2)C(C)C1", "note": "(stereo partly drawn) [Example 10, ((S)-4-carboxy-2-{[2-phenyl-6-(tetrahydro-furan-3-yloxy)-pyrimidine-4-carbonyl]-amino}-butyryl)-3-methyl-piperazine-1-carboxylic acid ethyl ester]", "IC50": 126}
{"smiles": "CCOC(=O)N1CCN(C(=O)[C@H](CCc2nnn[nH]2)NC(=O)c2cc(OC3CCOC3)nc(-c3ccccc3)n2)CC1", "note": "(stereo partly drawn) [Example 17, 4-[(S)-2-{[2-phenyl-6-(tetrahydro-furan-3-yloxy)-pyrimidine-4-carbonyl]-amino}-4-(1H-tetrazol-5-yl)-butyryl]-piperazine-1-carboxylic acid ethyl ester]", "IC50": 94}
{"smiles": "CCCCOC(=O)N1CCN(C(=O)[C@H](CCC(=O)OC(C)(C)C)NC(=O)c2cc(O[C@@H]3CCOC3)nc(-c3ccccc3)n2)CC1", "note": "[Example 36, 4-[(S)-4-tert-butoxycarbonyl-2-({2-phenyl-6-[(R)-(tetrahydro-furan-3-yl)oxy]-pyrimidine-4-carbonyl}-amino)-butyryl]-piperazine-1-carboxylic acid butyl ester]", "IC50": 448}
{"smiles": "CCCCOC(=O)N1CCN(C(=O)[C@H](CCC(=O)O)NC(=O)c2cc(OC3CCNCC3)nc(-c3ccccc3)n2)CC1", "note": "[Example 37, 4-((S)-4-carboxy-2-{[2-phenyl-6-(piperidin-4-yloxy)-pyrimidine-4-carbonyl]-amino}-butyryl)-piperazine-1-carboxylic acid butyl ester]", "IC50": 71}
{"smiles": "CCCCOC(=O)N1CCN(C(=O)[C@H](CCC(=O)OC(C)(C)C)NC(=O)c2cc(OC3CCNCC3)nc(-c3ccccc3)n2)CC1", "note": "[Example 38, 4-((S)-4-tert-butoxycarbonyl-2-{[2-phenyl-6-(piperidin-4-yloxy)-pyrimidine-4-carbonyl]-amino}-butyryl)-piperazine-1-carboxylic acid butyl ester]", "IC50": 13000}
